Values after ≈ are worked out from the molar mass of the structure shown. Where two headings read alike, the source gives them in different places.
How the values were obtained:
[1] = system: A. baumannii AYE; experiment: General MIC protocol, Gram negative; assay type: cell-based; conditions: Acinetobacter baumannii
Procedure, shortened: (§1)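 Broth microdilution in tryptic soy broth used two-fold serial dilutions from a top final concentration of 32 μg/ml and a starting inoculum of 5×10^5 bacteria/ml. Plates stood 20 h at 37 °C unless specified elsewhere. Growth was judged by OD600.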

[2] = system: A. baumannii NCTC 17978; experiment: General MIC protocol, Gram negative; assay type: cell-based; conditions: Acinetobacter baumannii, NCTC17978
Procedure, shortened: as §1

[3] = system: K. pneumonia M6; experiment: General MIC protocol, Gram negative; assay type: cell-based; conditions: Klebsiella pneumoniae; KP-M6
Procedure, shortened: as §1

[4] = system: K. pneumonia NCTC 13368; experiment: General MIC protocol, Gram negative; assay type: cell-based; conditions: Klebsiella pneumoniae, NCTC13368
Procedure, shortened: as §1

[5] = system: K. pneumonia NCTC 13443; experiment: General MIC protocol, Gram negative; assay type: cell-based; conditions: Klebsiella pneumoniae, NCTC13443
Procedure, shortened: as §1

[6] = system: K. pneumonia NCTC 51851; experiment: General MIC protocol, Gram negative; assay type: cell-based; conditions: Klebsiella pneumoniae, NCTC51851
Procedure, shortened: as §1

[7] = system: P. aeruginosa NCTC 13437; experiment: General MIC protocol, Gram negative; assay type: cell-based
Procedure, shortened: as §1

[8] = system: AYE; experiment: Effect of efflux pump inhibitors (EPIs) on MIC; assay type: cell-based, A. bauamnnii; conditions: for +PABN MIC: PABN at 25 μg/ml
Description: (§2) 1. Grow up cultures of bacterial strains to be tested overnight.
(§3) 2. Dilute down overnight cultures to concentration of 1×10^6 bacteria/ml (OD0.01) in Tryptic soy broth (TSB).
(§4) 3. Add 100 μl of TSB media to column 2-column 12 in 96 well plate (keeping column 1 clear).
(§5) 4. Make up compound to a concentration of 64 μg/ml in water.
(§6) 5. Add 100 μl of antibiotic solution to the 1st and 2nd columns.
(§7) 6. Using a multichannel pipette take 100 μl from the 2nd column wells and pipette into 3rd column wells and repeat down the 96 well plate (remember to include controls i.e. uninfected media and media with no antibiotic).
(§8) 7. To each well (except uninfected control row H) add 50 μl/well of EPI at 4× final concentration in TSB.
(§9) 9. In wells used to test the effect of the EPI carbonyl cyanide 3-chlorophenylhydrazone (CCCP) the CCCP is added at 10 μg/ml final concentration.
(§10) 10. In wells used to test the effect of the EPI phenylalanine-arginine β-naphthylamide (PABN) the PABN is added at 25 μg/ml final concentration.
(§11) 11. In wells used to test the effect of the PABN+Mg, the PABN is added at 25 μg/ml final concentration, with 1 mM MgSO4 in TSB.
(§12) 12. Wrap plate with parafilm to prevent evaporation.
(§13) 13. Leave at desired temperature (37° C. unless specified elsewhere) for 20 hours.
(§14) 14. Next day check plates for growth and measure optical density (i.e. absorbance) at a wavelength of 600 nm (OD600).
(§15) Compound KMR-14-33 was tested against a range of bacterial species using the above protocol. Compound PP-A148 was also tested against a more limited range of bacterial species using the above protocol. For KMR-14-33 measurements were carried out for the compound alone, for the compound plus CCCP, for the compound plus PABN and for the compound plus PABN and plus Mg. For PP-A148 measurements were carried out for the compound alone and for the compound plus PABN.

[9] = system: NCTC 17978; experiment: Effect of efflux pump inhibitors (EPIs) on MIC; assay type: cell-based, A. bauamnnii; conditions: for +PABN MIC: PABN at 25 μg/ml
Description: as §2, §3, §4, §5, §6, §7, §8, §9, §10, §11, §12, §13, §14, §15

[10] = system: HeLa (Cervical cancer cell line); experiment: MTT cytotoxicity assay; assay type: cell-based; conditions: Homo sapiens, MTT, 24 h continuous exposure, read-out: IC50 HeLa (Cervical cancer cell line)
Description: (§16) Two immortalised human cell lines, HeLa and WI38 were used for cytotoxicity screening of the compounds. HeLa is a human cervical cancer cell line and WI38 is a normal healthy cell line. The cell lines were obtained from the American Type Culture Collection. The cell-lines were maintained in monolayer culture in 75 cm2 flasks (TPP, Switzerland) under a humidified 5% CO2 atmosphere at 37° C. The HeLa cell line was maintained in Dulbecco's Modified Eagles Media (DMEM; Invitrogen) supplemented with foetal bovine serum (10% v/v; Invitrogen), L-glutamine (2 mM; Invitrogen), non-essential amino acids (1×; Invitrogen) and Penicillin-Streptomycin (1% v/v, Invitrogen). For WI38, Eagle's Minimum Essential Medium, and Penicillin-Streptomycin (1% v/v, Invitrogen) and foetal bovine serum (10%, nvitrogen) was used. For passaging, cells were washed with phosphate buffered saline [PBS] (GIBCO 14040, Invitrogen, UK), incubated with trypsine (GIBCO 25300, Invitrogen, UK), and re-seeded into fresh medium. For seeding, cells were counted using a Neubauer haemocytometer (Assistant, Germany) by microscopy (Nikon, USA) on a non-adherent suspension of cells that were washed in PBS, trypsinised, centrifuged at 8° C. at 8000 rpm for 5 min and re-suspended in fresh medium.
(§17) The cells were grown in normal cell culture conditions at 37° C. under a 5% CO2 humidified atmosphere using appropriate medium. The cell count was adjusted to 10^5 cells/ml/ and 20,000 cells were added per well. The cells were incubated for 24 hours and 1 μl of the appropriate inhibitor concentrations were to the wells in triplicates. After 24 h of continuous exposure to each compound, the cytotoxicity was determined using the MIT (3-(4,5-Dimethylthiazol-2-yl)-2,5-diphenyltetrazolium bromide) (Lancaster Synthesis Ltd, UK) colorimetric assay. Absorbance was quantified by spectrophotometry at λ=570 nm (Envision Plate Reader, PerkinElmer, USA). IC50 values were calculated by a dose-response analysis using the Prism Graphpad Prism® software. The cytotoxicity results are shown below in Table 12.

[11] = system: WI38 (Healthy cell line); experiment: MTT cytotoxicity assay; assay type: cell-based; conditions: Homo sapiens, WI-38; MTT; 24 h continuous exposure; highest concentration tested 20 μM; read-out: IC50 WI38 (Healthy cell line)
Description: as §16, §17

[12] = Pseudomonas aeruginosa, NCTC13437
[13] = read-out: Control with no EPI MIC
[14] = no EPI, read-out: Control with no EPI MIC

| Compound | MIC [1] | MIC [2] | MIC [3] | MIC [4] | MIC [5] | MIC [6] | MIC ([7]; NCTC 13437, KMR-14-33 alone) | MIC [7, 12] | +PABN MIC ([8]; AYE) | +PABN + Mg MIC ([8]; AYE, PABN at 25 μg/ml with 1 mM MgSO4) | MIC ([8]; read-out: +CCCP MIC) | MIC [8, 13] | MIC ([9]; CCCP at 10 μg/ml, read-out: +CCCP MIC) | +PABN MIC [9] | +PABN + Mg MIC ([9]; PABN at 25 μg/ml with 1 mM MgSO4) | MIC [9, 14] | IC50 [10] | IC50 [11] |
| --- | --- | --- | --- | --- | --- | --- | --- | --- | --- | --- | --- | --- | --- | --- | --- | --- | --- | --- |
| COc1cc2c(cc1OCCCC(=O)Nc1cc(C(=O)Nc3ccc4sc(C(=O)N(C)C)cc4c3)n(C)c1)N=C[C@@H]1CCCN1C2=O [KMR-14-33, (S)—N-(2-(dimethylcarbamoyl)benzo[b]thiophen-5-yl)-4-(4-((7-methoxy-5-oxo-2,3,5,11a-tetrahydro-1H-benzo[e]pyrrolo[1,2-a][1,4]-diazepin-8-yl)oxy)butanamido)-1-methyl-1H-pyrrole-2-carboxamide] | 1 µg/mL (≈ 1.52 µM) | 0.5 µg/mL (≈ 0.761 µM) | 1 µg/mL (≈ 1.52 µM) | 2 µg/mL (≈ 3.05 µM) | 2 µg/mL (≈ 3.05 µM) | 2 µg/mL (≈ 3.05 µM) | 32 µg/mL (≈ 48.7 µM) | > 32 µg/mL | 0.125 µg/mL | 0.25 µg/mL | 0.125 µg/mL (≈ 0.19 µM) | 1 µg/mL (≈ 1.52 µM) | 0.25 µg/mL (≈ 0.381 µM) | 0.06 µg/mL | 0.25 µg/mL | 0.5 µg/mL (≈ 0.761 µM) | 15.6 µM | > 20 µM |
| COc1cc2c(cc1OCCCC(=O)Nc1cc(C(=O)Nc3ccc4oc(C(=O)N5CCSCC5)cc4c3)n(C)c1)N=C[C@@H]1CCCN1C2=O [PP-A148, (S)-4-(4-((7-methoxy-5-oxo-2,3,5,11a-tetrahydro-1H-benzo-[e]pyrrolo[1,2-a][1,4]diazepin-8-yl)oxy)butanamido)-1-methyl-N-(2-(thiomorpholine-4-carbonyl)benzofuran-5-yl)-1H-pyrrole-2-carboxamide] | 2 µg/mL (≈ 2.86 µM) | 2 µg/mL (≈ 2.86 µM) | 0.25 to 0.5 µg/mL (≈ 0.358 to 0.716 µM) | 16 to 32 µg/mL (≈ 22.9 to 45.8 µM) | 16 µg/mL (≈ 22.9 µM) | 4 µg/mL (≈ 5.72 µM) | – | 16 µg/mL (≈ 22.9 µM) | 0.125 to 0.5 µg/mL | – | – | 2 µg/mL (≈ 2.86 µM) | – | 0.125 to 0.5 µg/mL | – | 2 µg/mL (≈ 2.86 µM) | > 20 µM | > 20 µM |
